Laboratory results reported in ChEMBL document CHEMBL1145944, “Synthesis and biological evaluation of 3-(4-substituted-phenyl)-N-hydroxy-2-propenamides, a new class of histone deacetylase inhibitors” (J Med Chem, 2003).

Assays:
Format in all cases: functional, cell-based
A549 = experiment: Compound was tested for antiproliferative activity against human A549 cancer cell lines using MTT assay
MKN-45 = experiment: Compound was tested for antiproliferative activity against human MKN45 cancer cell lines
SK-BR-3 = experiment: Compound was tested for antiproliferative activity against human SK-BR-3 cancer cell lines

Row | IC50 (A549) | IC50 (MKN-45) | IC50 (SK-BR-3) | Compound
1 | 1650 nM | 2940 nM | 270 nM | O=C(/C=C/c1ccc(CNC(=O)c2ccc(N3CCN(Cc4cccnc4)CC3)cc2)cc1)NO
2 | 12000 nM | 38600 nM | 3190 nM | O=C(/C=C/c1ccc(CNC(=O)c2ccc(N3CCN(Cc4ccccn4)CC3)cc2)cc1)NO
3 | 3020 nM | 56000 nM | 1720 nM | O=C(/C=C/c1ccc(CNC(=O)c2ccc(N3CCN(Cc4ccncc4)CC3)cc2)cc1)NO
4 | 840 nM | 1070 nM | 590 nM | O=C(/C=C/C#Cc1ccc(NS(=O)(=O)c2ccccc2)cc1)NO [OXAMFLATIN]
